# Test results from patent US4593093A, “Acyl derivatives” (priority 1980, dated 1986).
# Structures can show the parent of a compound that is named as a salt. Where two headings read alike, the source gives them in different places.
# What was measured:
# Proteus vulgaris = experiment: Activity in vitro: minimum inhibitory concentration; format: cell-based
# Proteus rettgeri = experiment: as above; format: cell-based; conditions: Providencia rettgeri
# Citrobacter freundii = experiment: as above; format: cell-based
# Klebsiella pseumoniae = experiment: as above; format: cell-based
# Proteus morganii = experiment: as above; format: cell-based; conditions: Morganella morganii
# Pseudomonas aeruginosa [1] = experiment: as above; format: cell-based
# Streptococcus viridans = experiment: as above; format: cell-based
# Staphylococcus epidermis = experiment: as above; format: cell-based
# Streptococcus faecalis = experiment: as above; format: cell-based; conditions: Enterococcus faecalis
# Toxicity, LD50 = conditions: in vivo
# Enterobacter cloacae [2] = experiment: Activity in vitro: minimum inhibitory concentration; format: cell-based
# Staphylococcus aureus = experiment: as above; format: cell-based
# Proteus inconstans = experiment: as above; format: cell-based; conditions: Providencia alcalifaciens
# Enterobacter aerogenes = experiment: as above; format: cell-based; conditions: Klebsiella aerogenes
# Streptococcus pyogenes [3] = experiment: as above; format: cell-based
# Pseudomonas aeruginosa [4] = experiment: Activity in vivo: survival of intraperitoneally infected mice; conditions: sc, 96 h; mice infected i.p. with Pseudomonas aeruginosa; s.c. three times, 1 h, 3 h and 5 h after infection; survival on 4th day; read-out: CD50 (dosage at which 50% of the animals survive)
# Method: (§1) Groups of 5 mice are infected intraperitoneally with an aqueous suspension of various pathogens. The test substance in physiological sodium chloride solution is administered subcutaneously twice, i.e. 1 hour and 3 hours after the infection. The number of surviving animals is determined on the 4th day. Various dosages are administered and that dosage at which 50% of the experimental animals survive (CD50, mg/kg) is determined by interpolation.
# *Administered subcutaneously three times: 1 hour, 3 hours and 5 hours
# Proteus mirabilis = experiment: Activity in vitro: minimum inhibitory concentration; format: cell-based
# Escherichia coli [5] = experiment: as above; format: cell-based
# Streptococcus pneumoniae = experiment: as above; format: cell-based
# Serratia marcescens [6] = experiment: as above; format: cell-based
# Haemophilus influenzae = experiment: Activity in vivo: survival of intraperitoneally infected mice; conditions: sc, 96 h; mice infected i.p. with Haemophilus influenzae; s.c. twice, 1 h and 3 h after infection; survival on 4th day; read-out: CD50 (dosage at which 50% of the animals survive)
# Method: as §1
# Serratia marcescens [7] = experiment: as above; conditions: sc, 96 h, mice infected i.p. with Serratia marcescens strain 1, s.c. twice, 1 h and 3 h after infection, survival on 4th day, read-out: CD50 (dosage at which 50% of the animals survive)
# Method: as §1
# Streptococcus pyogenes [8] = experiment: as above; conditions: sc, 96 h; mice infected i.p. with Streptococcus pyogenes; s.c. twice, 1 h and 3 h after infection; survival on 4th day; read-out: CD50 (dosage at which 50% of the animals survive)
# Method: as §1
# Escherichia coli [9] = experiment: as above; conditions: sc, 96 h; mice infected i.p. with Escherichia coli; s.c. twice, 1 h and 3 h after infection; survival on 4th day; read-out: CD50 (dosage at which 50% of the animals survive)
# Method: as §1
# Enterobacter cloacae [10] = experiment: as above; conditions: sc, 96 h; mice infected i.p. with Enterobacter cloacae; s.c. twice, 1 h and 3 h after infection; survival on 4th day; read-out: CD50 (dosage at which 50% of the animals survive)
# Method: as §1
# Neisseria moningitidis = experiment: as above; conditions: sc, 96 h; mice infected i.p. with Neisseria moningitidis; s.c. twice, 1 h and 4 h after infection; survival on 4th day; read-out: CD50 (dosage at which 50% of the animals survive)
# Method: as §1
# **Administered subcutaneously twice: 1 hour and 4 hours after the […]
# [11] = Pseudomonas aeruginosa strain 1
# [12] = Pseudomonas aeruginosa strain 2
# [13] = Pseudomonas aeruginosa strain 3
# [14] = Streptococcus faecalis strain 1
# [15] = Streptococcus faecalis strain 2
# [16] = Enterobacter aerogenes strain 1
# [17] = Enterobacter aerogenes strain 2
# [18] = Streptococcus pyogenes strain 1, read-out: Minimum inhibitory concentration
# [19] = Streptococcus pyogenes strain 2, read-out: Minimum inhibitory concentration
compound,measurement,setting,value
"CO/N=C(\C(=O)N[C@@H]1C(=O)N2C(C(=O)[O-])=C(CSc3nnnn3C)CS[C@H]12)c1c[se]c(N)n1.[Na+] [Product A, (6R, 7R)-7-[2-(2-amino-4-selenazolyl)-2-[(Z)-methoxyimino]-acetamido]-3-[[(1-methyl-1H-tetrazol-5-yl)-thio]methyl]-8-oxo-5-thia-1-azabicyclo[4.2.0]oct-2-ene-2-carboxylic acid sodium salt]",MIC,Proteus vulgaris,0.78 µg/mL
same,MIC,Proteus rettgeri,0.2 µg/mL
same,MIC,Citrobacter freundii; Citrobacter freundii strain 1,1.6 µg/mL
same,MIC,Citrobacter freundii; Citrobacter freundii strain 2,0.05 µg/mL
same,MIC,Klebsiella pseumoniae; Klebsiella pseumoniae strain 1,0.2 µg/mL
same,MIC,Klebsiella pseumoniae; Klebsiella pseumoniae strain 2,0.05 µg/mL
same,MIC,Klebsiella pseumoniae; Klebsiella pseumoniae strain 3,0.1 µg/mL
same,MIC,Proteus morganii,0.1 µg/mL
same,MIC,Pseudomonas aeruginosa [1]; [11],25 µg/mL
same,MIC,Pseudomonas aeruginosa [1]; [12],25 µg/mL
same,MIC,Pseudomonas aeruginosa [1]; [13],6.3 µg/mL
same,MIC,Streptococcus viridans,0.8 µg/mL
same,MIC,Staphylococcus epidermis,0.8 µg/mL
same,MIC,Streptococcus faecalis; [14],100 µg/mL
same,MIC,Streptococcus faecalis; [15],> 100 µg/mL
same,LD50,"Toxicity, LD50; po",> 5000 mg/kg
same,LD50,"Toxicity, LD50; sc",> 4000 mg/kg
same,MIC,Enterobacter cloacae [2]; Enterobacter cloacae strain 1,> 100 µg/mL
same,MIC,Enterobacter cloacae [2]; Enterobacter cloacae strain 2,0.8 µg/mL
same,MIC,Enterobacter cloacae [2]; Enterobacter cloacae strain 3,50 µg/mL
same,MIC,Staphylococcus aureus; Staphylococcus aureus strain 1,0.8 µg/mL
same,MIC,Staphylococcus aureus; Staphylococcus aureus strain 2,1.6 µg/mL
same,MIC,Staphylococcus aureus; Staphylococcus aureus strain 3,0.8 µg/mL
same,MIC,Staphylococcus aureus; Staphylococcus aureus strain 4,0.8 µg/mL
same,MIC,Proteus inconstans,0.025 µg/mL
same,MIC,Enterobacter aerogenes; [16],0.1 µg/mL
same,MIC,Enterobacter aerogenes; [17],0.1 µg/mL
same,MIC,Streptococcus pyogenes [3]; [18],0.025 µg/mL
same,MIC,Streptococcus pyogenes [3]; [19],≤ 0.012 µg/mL
same,ED50,Pseudomonas aeruginosa [4],39 mg/kg
same,MIC,Proteus mirabilis; Proteus mirabilis strain 1,0.1 µg/mL
same,MIC,Proteus mirabilis; Proteus mirabilis strain 2,0.1 µg/mL
same,MIC,Proteus mirabilis; Proteus mirabilis strain 3,0.8 µg/mL
same,MIC,Proteus mirabilis; Proteus mirabilis strain 4,0.05 µg/mL
same,MIC,Proteus mirabilis; Proteus mirabilis strain 5,0.05 µg/mL
same,MIC,Escherichia coli [5]; Escherichia coli strain 1,0.1 µg/mL
same,MIC,Escherichia coli [5]; Escherichia coli strain 2,0.025 µg/mL
same,MIC,Escherichia coli [5]; Escherichia coli strain 3,0.4 µg/mL
same,MIC,Escherichia coli [5]; Escherichia coli strain 4,0.2 µg/mL
same,MIC,Escherichia coli [5]; Escherichia coli strain 5,0.4 µg/mL
same,MIC,Streptococcus pneumoniae,0.025 µg/mL
same,MIC,Serratia marcescens [6]; Serratia marcescens strain 1,0.4 µg/mL
same,MIC,Serratia marcescens [6]; Serratia marcescens strain 2,0.8 µg/mL
same,MIC,Serratia marcescens [6]; Serratia marcescens strain 3,0.1 µg/mL
same,ED50,Haemophilus influenzae,1.5 mg/kg
same,ED50,Serratia marcescens [7],0.13 mg/kg
same,ED50,Streptococcus pyogenes [8],0.05 mg/kg
same,ED50,Escherichia coli [9],0.006 mg/kg
same,ED50,Enterobacter cloacae [10],8.4 mg/kg
"CO/N=C(\C(=O)N[C@@H]1C(=O)N2C(C(=O)O)=C(CSc3nnc(C)s3)CS[C@H]12)c1c[se]c(N)n1 [Product B, (6R, 7R)-7-[2-)2-amino-4-selenazolyl)-2-[(Z)-methoxyimino]-acetamido]-3-[[(5-methyl-1,3,4-thiadiazol-2-yl)thio]methyl]-8-oxo-5-thia-1-azabicyclo[4.2.0]oct-2-ene-2-carboxylic acid sodium salt]",MIC,Proteus vulgaris,0.78 µg/mL
same,MIC,Proteus rettgeri,0.2 µg/mL
same,MIC,Citrobacter freundii; Citrobacter freundii strain 1,1.6 µg/mL
same,MIC,Citrobacter freundii; Citrobacter freundii strain 2,0.2 µg/mL
same,MIC,Klebsiella pseumoniae; Klebsiella pseumoniae strain 1,0.4 µg/mL
same,MIC,Klebsiella pseumoniae; Klebsiella pseumoniae strain 2,0.1 µg/mL
same,MIC,Klebsiella pseumoniae; Klebsiella pseumoniae strain 3,0.2 µg/mL
same,MIC,Proteus morganii,0.05 µg/mL
same,MIC,Pseudomonas aeruginosa [1]; [11],50 µg/mL
same,MIC,Pseudomonas aeruginosa [1]; [12],25 µg/mL
same,MIC,Pseudomonas aeruginosa [1]; [13],6.3 µg/mL
same,MIC,Streptococcus viridans,0.8 µg/mL
same,MIC,Staphylococcus epidermis,0.8 µg/mL
same,MIC,Streptococcus faecalis; [14],100 µg/mL
same,MIC,Streptococcus faecalis; [15],100 µg/mL
same,LD50,"Toxicity, LD50; po",> 5000 mg/kg
same,LD50,"Toxicity, LD50; sc",> 4000 mg/kg
same,MIC,Enterobacter cloacae [2]; Enterobacter cloacae strain 1,> 100 µg/mL
same,MIC,Enterobacter cloacae [2]; Enterobacter cloacae strain 2,1.6 µg/mL
same,MIC,Enterobacter cloacae [2]; Enterobacter cloacae strain 3,50 µg/mL
same,MIC,Staphylococcus aureus; Staphylococcus aureus strain 1,0.8 µg/mL
same,MIC,Staphylococcus aureus; Staphylococcus aureus strain 2,1.6 µg/mL
same,MIC,Staphylococcus aureus; Staphylococcus aureus strain 3,0.8 µg/mL
same,MIC,Staphylococcus aureus; Staphylococcus aureus strain 4,1.6 µg/mL
same,MIC,Proteus inconstans,0.025 µg/mL
same,MIC,Enterobacter aerogenes; [16],0.1 µg/mL
same,MIC,Enterobacter aerogenes; [17],0.1 µg/mL
same,MIC,Streptococcus pyogenes [3]; [18],0.025 µg/mL
same,MIC,Streptococcus pyogenes [3]; [19],≤ 0.012 µg/mL
same,ED50,Pseudomonas aeruginosa [4],134 mg/kg
same,MIC,Proteus mirabilis; Proteus mirabilis strain 1,0.19 µg/mL
same,MIC,Proteus mirabilis; Proteus mirabilis strain 2,0.19 µg/mL
same,MIC,Proteus mirabilis; Proteus mirabilis strain 3,0.2 µg/mL
same,MIC,Proteus mirabilis; Proteus mirabilis strain 4,0.4 µg/mL
same,MIC,Proteus mirabilis; Proteus mirabilis strain 5,0.4 µg/mL
same,MIC,Escherichia coli [5]; Escherichia coli strain 1,0.2 µg/mL
same,MIC,Escherichia coli [5]; Escherichia coli strain 2,0.006 µg/mL
same,MIC,Escherichia coli [5]; Escherichia coli strain 3,0.8 µg/mL
same,MIC,Escherichia coli [5]; Escherichia coli strain 4,0.2 µg/mL
same,MIC,Escherichia coli [5]; Escherichia coli strain 5,0.4 µg/mL
same,MIC,Streptococcus pneumoniae,0.025 µg/mL
same,MIC,Serratia marcescens [6]; Serratia marcescens strain 1,0.8 µg/mL
same,MIC,Serratia marcescens [6]; Serratia marcescens strain 2,1.6 µg/mL
same,MIC,Serratia marcescens [6]; Serratia marcescens strain 3,0.2 µg/mL
same,ED50,Haemophilus influenzae,0.27 mg/kg
same,ED50,Serratia marcescens [7],0.52 mg/kg
same,ED50,Streptococcus pyogenes [8],0.05 mg/kg
same,ED50,Escherichia coli [9],0.006 mg/kg
same,ED50,Enterobacter cloacae [10],> 12 mg/kg
"CO/N=C(\C(=O)N[C@@H]1C(=O)N2C(C(=O)O)=C(CSc3nc(=O)c(O)nn3C)C[S+]([O-])[C@H]12)c1c[se]c(N)n1 (stereo partly drawn) [Product E, (6R, 7R)-7-[2-(2-amino-4-selenazolyl)-2-[(Z)-methoxyimino]-acetamido]-3-[[(2,5-dihydro-6-hydroxy-2-methyl-5-oxo-as-triazin-3-yl)-thio]methyl]-8-oxo-5-thia-1-azabicyclo[4.2.0]oct-2-ene-2-carboxylic acid 5-oxide disodium salt]",MIC,Proteus rettgeri,0.05 µg/mL
same,MIC,Citrobacter freundii; Citrobacter freundii strain 1,0.1 µg/mL
same,MIC,Citrobacter freundii; Citrobacter freundii strain 2,0.1 µg/mL
same,MIC,Klebsiella pseumoniae; Klebsiella pseumoniae strain 1,0.1 µg/mL
same,MIC,Klebsiella pseumoniae; Klebsiella pseumoniae strain 2,0.05 µg/mL
same,MIC,Klebsiella pseumoniae; Klebsiella pseumoniae strain 3,0.1 µg/mL
same,MIC,Proteus morganii,0.1 µg/mL
same,MIC,Pseudomonas aeruginosa [1]; [11],100 µg/mL
same,MIC,Pseudomonas aeruginosa [1]; [12],100 µg/mL
same,MIC,Pseudomonas aeruginosa [1]; [13],50 µg/mL
same,MIC,Streptococcus viridans,> 12 µg/mL
same,MIC,Staphylococcus epidermis,> 12 µg/mL
same,MIC,Streptococcus faecalis; [14],> 12 µg/mL
same,MIC,Streptococcus faecalis; [15],> 12 µg/mL
same,LD50,"Toxicity, LD50; po",> 5000 mg/kg
same,LD50,"Toxicity, LD50; sc",> 4000 mg/kg
same,MIC,Enterobacter cloacae [2]; Enterobacter cloacae strain 1,1.6 µg/mL
same,MIC,Enterobacter cloacae [2]; Enterobacter cloacae strain 2,0.2 µg/mL
same,MIC,Enterobacter cloacae [2]; Enterobacter cloacae strain 3,1.6 µg/mL
same,MIC,Staphylococcus aureus; Staphylococcus aureus strain 1,> 12 µg/mL
same,MIC,Staphylococcus aureus; Staphylococcus aureus strain 2,> 12 µg/mL
same,MIC,Staphylococcus aureus; Staphylococcus aureus strain 3,> 12 µg/mL
same,MIC,Staphylococcus aureus; Staphylococcus aureus strain 4,> 12 µg/mL
same,MIC,Proteus inconstans,0.025 µg/mL
same,MIC,Enterobacter aerogenes; [16],0.1 µg/mL
same,MIC,Enterobacter aerogenes; [17],0.05 µg/mL
same,ED50,Neisseria moningitidis,< 0.1 mg/kg
same,MIC,Streptococcus pyogenes [3]; [18],3.1 µg/mL
same,MIC,Streptococcus pyogenes [3]; [19],0.2 µg/mL
same,ED50,Pseudomonas aeruginosa [4],75 mg/kg
same,MIC,Proteus mirabilis; Proteus mirabilis strain 3,0.05 µg/mL
same,MIC,Proteus mirabilis; Proteus mirabilis strain 4,0.4 µg/mL
same,MIC,Proteus mirabilis; Proteus mirabilis strain 5,0.1 µg/mL
same,MIC,Escherichia coli [5]; Escherichia coli strain 1,0.1 µg/mL
same,MIC,Escherichia coli [5]; Escherichia coli strain 2,0.025 µg/mL
same,MIC,Escherichia coli [5]; Escherichia coli strain 3,0.8 µg/mL
same,MIC,Escherichia coli [5]; Escherichia coli strain 4,0.05 µg/mL
same,MIC,Escherichia coli [5]; Escherichia coli strain 5,0.4 µg/mL
same,MIC,Streptococcus pneumoniae,3.1 µg/mL
same,MIC,Serratia marcescens [6]; Serratia marcescens strain 1,0.8 µg/mL
same,MIC,Serratia marcescens [6]; Serratia marcescens strain 2,0.8 µg/mL
same,MIC,Serratia marcescens [6]; Serratia marcescens strain 3,0.2 µg/mL
same,ED50,Haemophilus influenzae,1.8 mg/kg
same,ED50,Serratia marcescens [7],0.03 mg/kg
same,ED50,Streptococcus pyogenes [8],0.13 mg/kg
same,ED50,Escherichia coli [9],0.017 mg/kg
same,ED50,Enterobacter cloacae [10],0.06 mg/kg
